Here are results for eight molecules from ChEMBL document CHEMBL1201862, “PubChem BioAssay data set” (2004).

What all share (experiment): DTP human tumour cell line panel, 48 h
Assay [1] deals with SK-MEL-5.
For assay [2], the system named is HT-29.
Assay [3] relates to SR.
In assay [4] the test system is SK-MEL-2.
The subject of assay [5] is COLO 205.
In assay [6] the test system is NCI/ADR-RES.
The subject of assay [7] is OVCAR-4.
The subject of assay [8] is MDA-MB-231.
For assay [9], the system named is SW-620.
Assay [10] deals with MDA-MB-435.
Assay [11] has as its system DU-145.
The subject of assay [12] is 786-0.
Assay [13] relates to SK-MEL-28.
The subject of assay [14] is A498.
The test system of assay [15] is SF-539.
Assay [16] deals with BT-549.
The subject of assay [17] is Hs-578T.
For assay [18], the system named is ACHN.
In assay [19] the test system is PC-3.
The test system of assay [20] is MOLT-4.

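In this assay, cells in 96-well plates receive the compound at five concentrations for 48 hours. Endpoints are linearly interpolated between the surrounding concentrations. At the GI50, growth is halved.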 Activity calls are given as the source filed them. Rule as the data show it: active = GI50 up to about 1.1 µM and inactive = higher. Where only a bound is given, the exact number is not on record here.

One may read the GI50 as the concentration that inhibits growth by half. As to `O=C(N/N=C/c1ccccc1)c1cccc2nc3ccccc3nc12`, the GI50 in [1] was 3.19 µM (inactive); in [2], 46.3 µM (inactive); in assay [3] it was > 100 µM (inactive); in assay [4], > 100 µM (inactive); in assay [5] it was 4.08 µM (inactive); in assay [6], > 100 µM (inactive). Further, the GI50 in assay [7] is > 100 µM (inactive); in assay [8] it was > 100 µM (inactive); in [9] it was > 100 µM (inactive); in assay [10] it was 65 µM (inactive); in assay [11], 17.9 µM (inactive); in assay [12], > 100 µM (inactive). Also, the GI50 in assay [13] was > 100 µM (inactive); in assay [14], 77.4 µM (inactive); in assay [15] it was > 100 µM (inactive); in assay [16], > 58.2 µM (inactive); in [17] it was 18.7 µM (inactive); in assay [18], > 100 µM (inactive). For the same molecule, the GI50 in assay [19] and in assay [20] was > 100 µM (inactive) throughout.

Consider `O=C(O)CNC(=O)C1NC(C(F)(F)F)(C(F)(F)F)OC1(C(F)(F)F)C(F)(F)F` (stereo not given), for which the GI50 in assay [1], in [2], in assay [3], in assay [4], in [5] and in assay [6] was > 100 µM (inactive) throughout. Moreover, the GI50 in [7], in [8], in assay [9], in assay [10], in assay [11] and in assay [12] was > 100 µM (inactive) in each case. The GI50 in [13], in assay [14], in [15], in [16], in assay [17] and in assay [18] was > 100 µM (inactive) throughout. Also, the GI50 in assay [19] and in [20] was > 100 µM (inactive) in each case.

Take `CC1(Br)Cc2ccccc2C1=O` (stereo not given): the GI50 was 5.71 µM (inactive) in [1]; 4.36 µM (inactive) in assay [2]; 2.45 µM (inactive) in [3]; 10.1 µM (inactive) in assay [4]; 4.35 µM (inactive) in assay [5]; 13.1 µM (inactive) in [6]. Moreover, the GI50 in assay [7] was 6.89 µM (inactive); in [8], 6.92 µM (inactive); in assay [9], 4.75 µM (inactive); in [10] it was 4.47 µM (inactive); in [11], 13.7 µM (inactive); in assay [12], 2.15 µM (inactive). The GI50 in assay [13] was 2.29 µM (inactive); in assay [14] it was 21.9 µM (inactive); in assay [15], 4.98 µM (inactive); in assay [16] it was 1.7 µM (inactive); in assay [17], 6.79 µM (inactive); in [18], 4.17 µM (inactive). Also, the GI50 in assay [19] was 10.3 µM (inactive); in assay [20], 2.13 µM (inactive).

Consider `C/C(=N/NC(=S)Nc1cccc(Cl)c1)c1ccccn1`, for which the GI50 in [1] was 0.37 µM (active); in assay [2], 0.0488 µM (active); in [3], < 0.0185 µM (active); in [4], 1.2 µM (inactive); in assay [5], 0.0372 µM (active); in assay [6] it was < 0.018 µM (active). The GI50 in assay [7] is 1.05 µM (active); in assay [8], < 0.0172 µM (active); in assay [9] it was 0.0324 µM (active); in assay [10] it was 1.31 µM (inactive); in assay [11], 0.532 µM (active); in assay [12], 0.562 µM (active). For the same molecule, the GI50 was 2.21 µM (inactive) in assay [13]; 1.5 µM (inactive) in [14]; 0.593 µM (active) in assay [15]; 1.82 µM (inactive) in [16]; 0.429 µM (active) in [17]; 0.194 µM (active) in [18]. Besides, the 50% growth inhibitory concentration (GI50) in [19] was 0.0255 µM (active); in assay [20], < 0.0156 µM (active).

As to `COC(=O)C1=C(O)CCCC(CCC(C)=O)=C1`, the GI50 was > 100 µM (inactive) in assay [1]; 57.4 µM (inactive) in assay [2]; 21.8 µM (inactive) in assay [3]; > 100 µM (inactive) in assay [4]; 20.5 µM (inactive) in assay [5]; > 100 µM (inactive) in assay [6]. The GI50 was 46.9 µM (inactive) in [7]; 73.8 µM (inactive) in assay [8]; 31.6 µM (inactive) in assay [9]; 69.5 µM (inactive) in assay [10]; 41.2 µM (inactive) in [11]; 26.9 µM (inactive) in assay [12]. For the same molecule, the GI50 was > 100 µM (inactive) in assay [13]; > 100 µM (inactive) in assay [14]; 22.2 µM (inactive) in assay [15]; > 100 µM (inactive) in [16]; > 100 µM (inactive) in assay [17]; 32.4 µM (inactive) in [18]. In addition, the GI50 in [19] is > 100 µM (inactive); in assay [20], 36.5 µM (inactive).

Regarding `C1CN(C23OC4(N5CCOCC5)C5C6CC(C7C6C4C72)C53)CCO1` (stereo not given), the GI50 in assay [1], in assay [2], in assay [3], in assay [4], in assay [5] and in assay [6] was > 100 µM (inactive) in each case. Also, the GI50 in assay [7], in [8], in assay [9], in assay [10], in assay [11] and in [12] was > 100 µM (inactive) each time. For the same molecule, the GI50 in assay [13] is > 100 µM (inactive); in assay [14] it was > 100 µM (inactive); in [15], > 100 µM (inactive); in assay [16], > 100 µM (inactive); in assay [17], > 100 µM (inactive); in assay [18], > 31.6 µM (inactive). For the same molecule, the GI50 in assay [19] and in [20] was > 100 µM (inactive) throughout.

Regarding `COc1cc2cc3c4cc(OC)c(OC)cc4cc[n+]3c(C)c2cc1OC.O=C([O-])CS(=O)(=O)O`, the GI50 is 80 µM (inactive) in [1]; 53.3 µM (inactive) in [2]; > 100 µM (inactive) in assay [3]; > 100 µM (inactive) in assay [4]; 57 µM (inactive) in assay [5]; > 100 µM (inactive) in assay [6]. Besides, the GI50 is 17.7 µM (inactive) in assay [7]; 70.5 µM (inactive) in assay [8]; 72.8 µM (inactive) in assay [9]; 42.3 µM (inactive) in [10]; 28.4 µM (inactive) in assay [11]; 88.3 µM (inactive) in assay [12]. Also, the GI50 in [13] was 73.3 µM (inactive); in [14], 22.3 µM (inactive); in assay [15] it was 42.7 µM (inactive); in [16], 33.5 µM (inactive); in assay [17], 20.7 µM (inactive); in [18], > 100 µM (inactive). The GI50 in [19] was 74.5 µM (inactive); in assay [20] it was > 100 µM (inactive).

For the molecule `CCOC(=O)c1[nH]c(Br)c(-c2ccc(Br)cc2)c1Br`, the GI50 was 0.375 µM (active) in [1]; 0.327 µM (active) in [2]; 0.914 µM (active) in assay [3]; 0.307 µM (active) in [4]; 0.385 µM (active) in assay [5]; 0.201 µM (active) in assay [6]. Besides, the GI50 is 1.3 µM (inactive) in assay [7]; 1.2 µM (inactive) in assay [8]; 0.555 µM (active) in assay [9]; 0.186 µM (active) in assay [10]; 1.66 µM (inactive) in [11]; 0.445 µM (active) in assay [12]. Further, the GI50 in [13] was 0.366 µM (active); in assay [14] it was 1.61 µM (inactive); in assay [15], 0.441 µM (active); in assay [16], 0.535 µM (active); in assay [17] it was 0.395 µM (active); in [18] it was 1.13 µM (inactive). Besides, the GI50 was 0.705 µM (active) in [19] and 0.367 µM (active) in assay [20].
